# From ChEMBL document CHEMBL5442219
# What was measured:
# Conditions in all cases: Compound concentration 10 µM
# [1] = target: T1, Alpha-2A adrenergic receptor (Homo sapiens) (UniProt P08913)
# T1 sequence (whole entry): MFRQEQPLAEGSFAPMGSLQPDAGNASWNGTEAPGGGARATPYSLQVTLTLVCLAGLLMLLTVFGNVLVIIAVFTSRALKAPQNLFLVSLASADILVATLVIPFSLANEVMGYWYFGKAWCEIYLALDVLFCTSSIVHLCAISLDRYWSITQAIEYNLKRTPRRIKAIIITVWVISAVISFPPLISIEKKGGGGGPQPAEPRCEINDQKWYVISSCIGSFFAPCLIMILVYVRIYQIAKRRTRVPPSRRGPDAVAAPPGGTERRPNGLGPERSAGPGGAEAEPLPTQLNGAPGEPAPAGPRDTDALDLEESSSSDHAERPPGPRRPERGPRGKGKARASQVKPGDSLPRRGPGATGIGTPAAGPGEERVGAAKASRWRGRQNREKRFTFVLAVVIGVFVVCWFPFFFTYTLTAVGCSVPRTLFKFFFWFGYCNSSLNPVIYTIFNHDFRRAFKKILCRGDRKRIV
# [2] = target: T2, D(4) dopamine receptor (Homo sapiens) (UniProt P21917)
# T2 sequence (whole entry): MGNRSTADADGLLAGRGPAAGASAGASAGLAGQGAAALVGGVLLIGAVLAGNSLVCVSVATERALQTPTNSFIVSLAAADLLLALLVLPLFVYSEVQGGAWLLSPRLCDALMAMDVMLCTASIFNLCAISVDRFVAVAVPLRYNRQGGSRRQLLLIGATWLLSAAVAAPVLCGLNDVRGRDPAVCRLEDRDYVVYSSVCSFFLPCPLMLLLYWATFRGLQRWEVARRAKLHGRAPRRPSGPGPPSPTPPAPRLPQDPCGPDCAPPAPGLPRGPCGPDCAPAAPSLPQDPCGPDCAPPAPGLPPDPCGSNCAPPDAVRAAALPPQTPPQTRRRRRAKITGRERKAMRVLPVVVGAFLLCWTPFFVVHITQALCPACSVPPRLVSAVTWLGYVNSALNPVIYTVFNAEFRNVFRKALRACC
# [3] = target: Histamine H4 receptor (Homo sapiens) (UniProt Q9H3N8)
# [4] = target: 5-hydroxytryptamine receptor 1D (Homo sapiens) (UniProt P28221)
# [5] = target: 5-hydroxytryptamine receptor 2B (Homo sapiens) (UniProt P41595)
# [6] = target: T3, 5-hydroxytryptamine receptor 2C (Homo sapiens) (UniProt P28335)
# T3 sequence (whole entry): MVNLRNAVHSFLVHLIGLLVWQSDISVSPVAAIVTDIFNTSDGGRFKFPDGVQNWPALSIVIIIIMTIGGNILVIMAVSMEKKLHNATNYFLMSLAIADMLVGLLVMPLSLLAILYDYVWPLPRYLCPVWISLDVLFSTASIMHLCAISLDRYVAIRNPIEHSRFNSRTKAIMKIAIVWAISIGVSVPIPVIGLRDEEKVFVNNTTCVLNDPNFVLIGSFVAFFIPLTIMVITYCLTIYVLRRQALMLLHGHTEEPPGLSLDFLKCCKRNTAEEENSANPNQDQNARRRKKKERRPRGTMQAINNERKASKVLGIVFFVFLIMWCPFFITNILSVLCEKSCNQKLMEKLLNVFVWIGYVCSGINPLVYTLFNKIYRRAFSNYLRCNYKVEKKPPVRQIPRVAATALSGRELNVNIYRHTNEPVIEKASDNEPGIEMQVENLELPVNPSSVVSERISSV
# [7] = target: T4, 5-hydroxytryptamine receptor 3A (Homo sapiens) (UniProt P46098)
# T4 sequence (whole entry): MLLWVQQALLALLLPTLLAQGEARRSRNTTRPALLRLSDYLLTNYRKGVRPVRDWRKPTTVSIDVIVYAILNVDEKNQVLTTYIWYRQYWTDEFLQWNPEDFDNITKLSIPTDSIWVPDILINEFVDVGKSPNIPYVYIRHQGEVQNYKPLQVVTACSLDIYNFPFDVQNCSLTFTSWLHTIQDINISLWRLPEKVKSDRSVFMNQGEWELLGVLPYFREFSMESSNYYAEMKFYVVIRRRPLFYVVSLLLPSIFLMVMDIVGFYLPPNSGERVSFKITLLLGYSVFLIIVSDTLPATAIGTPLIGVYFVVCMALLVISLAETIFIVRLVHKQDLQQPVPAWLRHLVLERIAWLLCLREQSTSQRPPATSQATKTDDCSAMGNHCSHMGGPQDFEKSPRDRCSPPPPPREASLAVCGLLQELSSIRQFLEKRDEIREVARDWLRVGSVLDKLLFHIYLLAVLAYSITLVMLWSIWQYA
# [8] = target: 5-hydroxytryptamine receptor 6 (Homo sapiens) (UniProt P50406)
# [9] = target: Kappa-type opioid receptor (Homo sapiens) (UniProt P41145)
# [10] = target: Muscarinic acetylcholine receptor M3 (Homo sapiens) (UniProt P20309)
# [11] = target: T5, Alpha-1B adrenergic receptor (Homo sapiens) (UniProt P35368)
# T5 sequence (whole entry): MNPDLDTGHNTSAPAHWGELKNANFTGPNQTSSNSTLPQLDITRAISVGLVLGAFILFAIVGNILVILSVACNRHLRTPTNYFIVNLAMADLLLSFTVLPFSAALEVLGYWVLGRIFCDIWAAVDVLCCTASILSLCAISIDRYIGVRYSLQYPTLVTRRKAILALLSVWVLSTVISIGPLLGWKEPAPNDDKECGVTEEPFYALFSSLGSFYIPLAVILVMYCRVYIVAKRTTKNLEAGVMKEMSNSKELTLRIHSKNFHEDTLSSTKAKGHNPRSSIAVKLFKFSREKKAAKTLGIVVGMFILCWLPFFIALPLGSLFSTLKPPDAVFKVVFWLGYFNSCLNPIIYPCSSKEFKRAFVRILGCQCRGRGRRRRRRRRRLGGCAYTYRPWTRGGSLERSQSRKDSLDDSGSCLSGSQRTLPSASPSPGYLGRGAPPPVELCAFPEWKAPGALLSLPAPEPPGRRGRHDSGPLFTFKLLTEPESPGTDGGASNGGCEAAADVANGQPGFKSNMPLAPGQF
# [12] = target: D(1A) dopamine receptor (Homo sapiens) (UniProt P21728)
# [13] = target: Sodium-dependent noradrenaline transporter (Homo sapiens) (UniProt P23975)
# Sodium-dependent noradrenaline transporter (Homo sapiens), sequence (P23975 whole entry): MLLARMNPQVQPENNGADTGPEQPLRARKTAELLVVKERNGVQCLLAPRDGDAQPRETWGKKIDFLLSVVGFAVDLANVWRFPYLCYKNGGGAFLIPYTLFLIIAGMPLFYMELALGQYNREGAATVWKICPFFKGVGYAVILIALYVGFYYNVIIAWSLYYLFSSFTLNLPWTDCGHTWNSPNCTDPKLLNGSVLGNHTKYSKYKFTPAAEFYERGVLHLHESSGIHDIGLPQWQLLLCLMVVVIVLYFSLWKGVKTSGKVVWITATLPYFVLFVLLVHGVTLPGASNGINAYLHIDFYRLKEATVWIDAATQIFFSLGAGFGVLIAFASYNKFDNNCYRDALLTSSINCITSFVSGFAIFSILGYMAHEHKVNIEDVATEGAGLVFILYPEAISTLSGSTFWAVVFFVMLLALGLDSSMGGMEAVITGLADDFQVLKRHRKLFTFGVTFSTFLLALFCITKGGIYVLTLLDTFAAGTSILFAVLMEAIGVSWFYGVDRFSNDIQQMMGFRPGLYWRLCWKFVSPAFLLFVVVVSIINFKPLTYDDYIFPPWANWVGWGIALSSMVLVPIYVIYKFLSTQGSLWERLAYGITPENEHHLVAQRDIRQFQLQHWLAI
# D(1A) dopamine receptor (Homo sapiens), sequence (P21728 whole entry): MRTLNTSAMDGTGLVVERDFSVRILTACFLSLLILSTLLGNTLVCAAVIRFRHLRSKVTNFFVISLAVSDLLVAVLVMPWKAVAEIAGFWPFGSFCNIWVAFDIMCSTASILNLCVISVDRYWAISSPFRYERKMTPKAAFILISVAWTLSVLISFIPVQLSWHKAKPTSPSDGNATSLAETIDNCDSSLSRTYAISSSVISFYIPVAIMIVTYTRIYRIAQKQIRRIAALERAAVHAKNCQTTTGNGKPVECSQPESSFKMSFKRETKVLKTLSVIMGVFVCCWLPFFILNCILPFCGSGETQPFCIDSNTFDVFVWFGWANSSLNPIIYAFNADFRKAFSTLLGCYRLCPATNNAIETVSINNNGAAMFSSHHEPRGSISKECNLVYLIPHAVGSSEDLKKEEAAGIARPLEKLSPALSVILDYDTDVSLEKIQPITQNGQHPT
# 5-hydroxytryptamine receptor 1D (Homo sapiens), sequence (P28221 whole entry): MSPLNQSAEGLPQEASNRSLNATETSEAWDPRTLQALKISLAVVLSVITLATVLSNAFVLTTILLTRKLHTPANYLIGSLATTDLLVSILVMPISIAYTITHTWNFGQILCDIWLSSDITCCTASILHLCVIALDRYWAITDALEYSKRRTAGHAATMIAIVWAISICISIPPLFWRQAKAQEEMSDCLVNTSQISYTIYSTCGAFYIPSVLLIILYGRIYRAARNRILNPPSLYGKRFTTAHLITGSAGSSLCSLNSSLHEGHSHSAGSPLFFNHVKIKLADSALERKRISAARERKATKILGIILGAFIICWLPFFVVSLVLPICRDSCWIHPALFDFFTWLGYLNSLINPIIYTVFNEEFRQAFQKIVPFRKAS
# Histamine H4 receptor (Homo sapiens), sequence (Q9H3N8 whole entry): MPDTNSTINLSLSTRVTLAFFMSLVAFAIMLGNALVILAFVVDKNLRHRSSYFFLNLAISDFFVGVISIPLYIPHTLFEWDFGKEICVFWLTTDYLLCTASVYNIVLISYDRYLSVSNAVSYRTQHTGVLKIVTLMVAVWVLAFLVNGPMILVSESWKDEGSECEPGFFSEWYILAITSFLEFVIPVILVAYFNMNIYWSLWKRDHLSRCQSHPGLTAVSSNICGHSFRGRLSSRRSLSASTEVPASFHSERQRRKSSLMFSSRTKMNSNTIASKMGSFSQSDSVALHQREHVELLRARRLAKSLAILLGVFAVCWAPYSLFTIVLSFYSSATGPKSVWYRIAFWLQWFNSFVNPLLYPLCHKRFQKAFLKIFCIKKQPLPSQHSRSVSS
# 5-hydroxytryptamine receptor 6 (Homo sapiens), sequence (P50406 whole entry): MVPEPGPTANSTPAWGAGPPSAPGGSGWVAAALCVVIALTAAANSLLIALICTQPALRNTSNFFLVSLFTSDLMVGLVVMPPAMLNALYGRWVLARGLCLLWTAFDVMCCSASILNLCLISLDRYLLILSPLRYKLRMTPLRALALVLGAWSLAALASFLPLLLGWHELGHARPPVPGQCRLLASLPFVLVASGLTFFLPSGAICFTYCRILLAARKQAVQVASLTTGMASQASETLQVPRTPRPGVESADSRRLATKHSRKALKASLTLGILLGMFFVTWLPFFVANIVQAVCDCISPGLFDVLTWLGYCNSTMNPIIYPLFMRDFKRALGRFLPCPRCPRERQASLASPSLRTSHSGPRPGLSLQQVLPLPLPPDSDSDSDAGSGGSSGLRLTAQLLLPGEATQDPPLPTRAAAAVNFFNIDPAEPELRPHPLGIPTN
# Muscarinic acetylcholine receptor M3 (Homo sapiens), sequence (P20309 whole entry, looked up): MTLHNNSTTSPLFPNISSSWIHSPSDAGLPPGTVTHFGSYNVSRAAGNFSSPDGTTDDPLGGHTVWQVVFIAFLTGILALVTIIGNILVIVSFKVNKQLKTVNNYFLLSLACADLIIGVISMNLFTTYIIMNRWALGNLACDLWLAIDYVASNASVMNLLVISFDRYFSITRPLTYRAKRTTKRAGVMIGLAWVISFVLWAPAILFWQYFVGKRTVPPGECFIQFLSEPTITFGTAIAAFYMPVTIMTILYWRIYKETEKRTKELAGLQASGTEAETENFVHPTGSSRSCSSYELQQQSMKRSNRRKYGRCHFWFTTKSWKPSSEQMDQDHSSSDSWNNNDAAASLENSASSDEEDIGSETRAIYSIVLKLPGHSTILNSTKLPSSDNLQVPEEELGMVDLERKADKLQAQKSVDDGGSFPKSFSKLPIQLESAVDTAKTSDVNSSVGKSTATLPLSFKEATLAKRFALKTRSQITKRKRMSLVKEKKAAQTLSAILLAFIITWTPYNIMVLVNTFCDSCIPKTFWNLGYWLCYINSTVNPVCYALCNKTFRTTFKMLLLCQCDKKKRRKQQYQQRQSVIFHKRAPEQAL
# Kappa-type opioid receptor (Homo sapiens), sequence (P41145 whole entry): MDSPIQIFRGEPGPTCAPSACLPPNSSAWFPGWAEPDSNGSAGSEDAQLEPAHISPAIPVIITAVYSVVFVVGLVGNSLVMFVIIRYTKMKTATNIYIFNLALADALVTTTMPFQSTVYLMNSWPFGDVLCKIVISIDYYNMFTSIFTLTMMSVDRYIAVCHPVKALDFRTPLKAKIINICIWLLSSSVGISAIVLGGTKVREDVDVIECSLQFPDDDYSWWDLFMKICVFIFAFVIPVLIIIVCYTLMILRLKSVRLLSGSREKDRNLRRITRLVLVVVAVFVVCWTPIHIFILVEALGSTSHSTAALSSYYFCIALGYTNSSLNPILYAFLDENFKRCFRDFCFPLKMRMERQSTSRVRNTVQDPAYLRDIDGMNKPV
# 5-hydroxytryptamine receptor 2B (Homo sapiens), sequence (P41595 whole entry): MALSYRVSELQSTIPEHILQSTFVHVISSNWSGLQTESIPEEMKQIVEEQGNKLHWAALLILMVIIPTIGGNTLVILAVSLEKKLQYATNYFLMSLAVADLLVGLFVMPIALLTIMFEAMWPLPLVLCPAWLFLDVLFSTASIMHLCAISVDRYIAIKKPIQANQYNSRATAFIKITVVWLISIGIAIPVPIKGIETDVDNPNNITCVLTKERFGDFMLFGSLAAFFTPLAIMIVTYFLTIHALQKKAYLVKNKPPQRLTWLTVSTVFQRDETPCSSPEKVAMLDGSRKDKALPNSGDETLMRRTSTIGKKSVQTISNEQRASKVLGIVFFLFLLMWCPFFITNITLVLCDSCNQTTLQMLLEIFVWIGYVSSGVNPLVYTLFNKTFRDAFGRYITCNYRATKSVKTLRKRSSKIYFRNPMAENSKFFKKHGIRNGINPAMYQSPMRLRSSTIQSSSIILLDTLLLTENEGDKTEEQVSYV
Compound,inhibition [1] [%],inhibition [2] [%],inhibition [3] [%],inhibition [4] [%],inhibition [5] [%],inhibition [6] [%],inhibition [7] [%],inhibition [8] [%],inhibition [9] [%],inhibition [10] [%],inhibition [11] [%],inhibition [12] [%],inhibition [13] [%]
CCCn1c(=O)c2nc(C34CC5CC(CC3C5)C4)[nH]c2n(CCC)c1=O,10,1.06,6.77,23.4,43.5,-0.12,-9.26,-4.94,4.62,–,–,–,–
Cc1c(F)cccc1NC(=O)Nc1ccc(Cl)c(S(=O)(=O)[C@H]2CCCNC2)c1O,–,6.5,–,-2.39,44.3,-7.64,–,-2.87,-8.19,22.8,–,–,–
CC(C)Oc1ccccc1C(=O)Nc1ccccc1C(=O)Nc1cccc(S(=O)(=O)C(F)(F)F)c1,–,43,–,–,–,11.3,-3.89,36.8,–,13.1,-9.86,–,–
Cc1nn(C)c(C)c1-c1cccc2c1CC[C@H](N(C)C)C2,89.8,24.5,–,95.6,84.9,13.1,85.9,-8.86,23.1,44.1,1.62,19.8,-2.38
Cc1ccc2c(c1)c1c(n2CCc2ccc(C)nc2)CCN(C)C1,69.7,52.7,–,70.8,76.9,81.4,21.6,90.6,20,18,85,39.2,-7.44
CN(C)S(=O)(=O)c1ccc(NC(=S)N2CCC(C(O)(c3ccccc3)c3ccccc3)CC2)cc1,-9.2,8.69,-3.58,–,23.4,3.54,-8.86,8.14,12.3,-7.46,-3.51,21.9,15.8
O=C(O)COc1cccc(CN(Cc2ccc(-n3cccn3)cc2)S(=O)(=O)c2cccnc2)c1,-8.07,4.77,-9.76,–,5.26,29.9,–,-0.81,-1.11,7.64,-5.67,–,–
O=C1O[C@]2(CC[C@H](C(=O)Nc3ccn(-c4ccccc4F)n3)CC2)c2cnccc21,-9.69,–,–,–,17.5,18.3,–,0.42,-6.46,2.94,3.66,–,–
COc1cccc(-c2c(C)n(Cc3c(F)cccc3C(F)(F)F)c(=O)n(C[C@H](NCCCC(=O)O)c3ccccc3)c2=O)c1F,–,25.8,–,–,-6.96,1.76,–,-1.04,52.1,-7.5,–,-9.59,–
O=C(O)CC1CCC2(CC1)CCN(c1cc(OC(F)(F)F)ccc1Cl)CC2,–,–,9.28,–,–,13.1,–,14.2,10.9,-5.1,0.25,–,13.3
CC(C)(C(=O)O)c1ccc(C(O)CCCN2CCC(C(O)(c3ccccc3)c3ccccc3)CC2)cc1 (stereo not given),-4.3,19.6,-8.03,39.8,67.8,-8.36,–,-8.41,–,–,2.41,28.9,–
NCCc1c[nH]c2ccc(C(N)=O)cc12,69.8,8.02,-3.92,98.3,78.8,71.4,–,88.4,2.24,3.95,3.04,–,63.2
CN1CCC(=C2c3ccccc3CC(=O)c3sccc32)CC1,80.9,25.6,26.2,123,98.4,93.2,84.5,78.4,20.8,–,1.66,82.8,45.1
CC(C)NC(=O)c1ccc(C#Cc2ccncc2)cn1,–,–,-7.18,–,34.4,–,-5.94,-2.79,-1.6,–,–,–,–
CCCNS(=O)(=O)Nc1ncnc(OCCOc2ncc(Br)cn2)c1-c1ccc(Br)cc1,–,–,8.98,9.11,–,4.95,–,2.99,1.8,20.8,12.1,–,53.5
CCOC(=O)c1cc(C#N)c(N2CCC(C(=O)NS(=O)(=O)Cc3ccccc3)CC2)nc1C,–,7.97,6.28,–,–,6.09,3.98,9.24,3.74,–,-8.97,0.26,–
Cc1cc([C@@H](C)Nc2cccc(-c3cc(C)c(C(=O)N[C@@H](C)C(=O)O)c(C)c3)c2)ccc1Cl,–,31.4,–,–,54.5,-0.82,–,-2.64,0.51,-4.86,–,14,14.9
CCC[C@H](Oc1cc(C)c(-n2cc(C(F)(F)F)cn2)c(C)c1)c1ccc(C(=O)NCCC(=O)O)cc1,–,-1.34,–,–,–,-0.8,–,-2.41,40.7,-0.42,–,20.2,–
